These results are taken from ChEMBL document CHEMBL1129179, “Antimicrobial evaluation of 3,1-benzoxazin-4-ones, 3,1-benzothiazin-4-ones, 4-alkoxyquinazolin-2-carbonitriles and N-arylimino-1,2,3-dithiazoles” (1996).

Holding throughout (type): functional
In experiment [1] the test system is Candida tropicalis. The experiment is described as follows: Minimum fungicidal concentration required for antifungal activity against Candida tropicalis DSM 1346 strain.
Experiment [2] deals with Cryptococcus neoformans. The experiment is described as follows: Minimum fungicidal concentration required for antifungal activity against Cryptococcus neoformans DSM 70219 strain.
Experiment [3] relates to Candida albicans. In words: Minimum inhibitory concentration required for antifungal activity against Candida albicans ATCC 10231 strain.
Experiment [4] relates to Pichia kudriavzevii. In words: Minimum fungicidal concentration required for antifungal activity against Issatchenkia orientalis DSM 6128 strain.
Experiment [5] can be described thus: Ratio of MFC99/MIC for antifungal activity against Cryptococcus neoformans DSM 70219 strain was determined.
Experiment [6] is described as follows: Ratio of MFC99/MIC for antifungal activity against Issatchenkia orientalis DSM 6128 strain was determined.
In experiment [7] the test system is Pichia kudriavzevii. The experiment is described as follows: Minimum inhibitory concentration required for antifungal activity against Issatchenkia orientalis DSM 6128 strain.
A short description of experiment [8]: Ratio of MFC99/MIC for antifungal activity against Candida tropicalis DSM 1346 strain was determined.
Experiment [9] has as its system Nakaseomyces glabratus. In words: Minimum fungicidal concentration required for antifungal activity against Candida glabrata DSM 6425 strain.
Experiment [10] relates to Candida tropicalis. In words: Minimum inhibitory concentration required for antifungal activity against Candida tropicalis DSM 1346 strain.
The nature of experiment [11]: Ratio of MFC99/MIC for antifungal activity against Candida albicans ATCC 10231 strain was determined.
The test system of experiment [12] is Nakaseomyces glabratus. The experiment is described as follows: Minimum inhibitory concentration required for antifungal activity against Candida glabrata DSM 6425 strain.
The nature of experiment [13]: Ratio of MFC99/MIC for antifungal activity against Candida glabrata DSM 6425 strain was determined.
Experiment [14] relates to Candida albicans. In words: Minimum fungicidal concentration required for antifungal activity against Candida albicans ATCC 10231 strain.
In experiment [15] the test system is Cryptococcus neoformans. The experiment is described as follows: Minimum inhibitory concentration required for antifungal activity against Cryptococcus neoformans DSM 70219 strain.

Structures are written as SMILES. Values after ≈ are worked out from the molar mass of the structure shown.

Usually MIC stands for the lowest concentration found to suppress growth. With `COC(=O)c1ccccc1/N=c1\ssnc1Cl`, the MFC99 came out at 16 µg/mL (≈ 55.8 µM) in experiment [1]; 32 µg/mL (≈ 112 µM) in experiment [2]; 32 µg/mL (≈ 112 µM) in [4]; 32 µg/mL (≈ 112 µM) in experiment [9]; 16 µg/mL (≈ 55.8 µM) in experiment [14]. The MIC in experiment [3] was 16 µg/mL (≈ 55.8 µM); in [7], 16 µg/mL (≈ 55.8 µM); in experiment [10] it was 16 µg/mL (≈ 55.8 µM); in experiment [12], 16 µg/mL (≈ 55.8 µM); in [15] it was 32 µg/mL (≈ 112 µM). Moreover, the Ratio in experiment [5] is 1; in experiment [6], 2; in [8], 1; in [11], 1; in experiment [13] it was 2.
For `COc1ccccc1/N=c1\ssnc1Cl`, the MFC99 in experiment [1], in experiment [2], in experiment [4], in experiment [9] and in experiment [14] was 16 µg/mL (≈ 61.8 µM) in each case. The MIC in [3] was determined as 16 µg/mL (≈ 61.8 µM); in [7], 16 µg/mL (≈ 61.8 µM); in experiment [10], 16 µg/mL (≈ 61.8 µM); in experiment [12], 16 µg/mL (≈ 61.8 µM); in experiment [15], 8 µg/mL (≈ 30.9 µM). In addition, the Ratio is 2 in [5]; 1 in experiment [6]; 1 in experiment [8]; 1 in experiment [11]; 1 in experiment [13].
For `COc1cc(/N=c2\ssnc2Cl)cc(OC)c1OC`, the MFC99 in experiment [1] was 32 µg/mL (≈ 100 µM); in [2] it was 32 µg/mL (≈ 100 µM); in experiment [4] it was 32 µg/mL (≈ 100 µM); in [9] it was 16 µg/mL (≈ 50.2 µM); in experiment [14] it was 16 µg/mL (≈ 50.2 µM). Further, the MIC in experiment [3], in experiment [7], in [10], in experiment [12] and in experiment [15] was 16 µg/mL (≈ 50.2 µM) throughout. Further, the Ratio stood at 2 in [5]; 2 in experiment [6]; 2 in [8]; 1 in experiment [11]; 1 in [13].
For `OC(Cn1cncn1)(Cn1cncn1)c1ccc(F)cc1F` [FLUCONAZOLE], the MFC99 is more than 128 µg/mL in experiment [1]; more than 128 µg/mL in experiment [2]; 64 µg/mL (≈ 209 µM) in [4]; more than 128 µg/mL in experiment [9]; more than 128 µg/mL in [14]. In addition, the MIC in experiment [3] is 2 µg/mL (≈ 6.53 µM); in experiment [7], 16 µg/mL (≈ 52.2 µM); in experiment [10], 4 µg/mL (≈ 13.1 µM); in experiment [12], 4 µg/mL (≈ 13.1 µM); in experiment [15] it was 4 µg/mL (≈ 13.1 µM). For the same compound, the Ratio in experiment [5] is more than 32; in experiment [6] it was 4; in [8], more than 32; in [11] it was more than 64; in [13], more than 32.
As to `Clc1nss/c1=N\c1ccccc1`, the MFC99 in experiment [1] amounted to 16 µg/mL (≈ 70 µM); in experiment [2], 8 µg/mL (≈ 35 µM); in experiment [4] it was 16 µg/mL (≈ 70 µM); in experiment [9] it was 16 µg/mL (≈ 70 µM); in experiment [14], 16 µg/mL (≈ 70 µM). The MIC in experiment [3] was determined as 16 µg/mL (≈ 70 µM); in experiment [7], 16 µg/mL (≈ 70 µM); in experiment [10], 16 µg/mL (≈ 70 µM); in experiment [12], 16 µg/mL (≈ 70 µM); in experiment [15], 8 µg/mL (≈ 35 µM). Further, the Ratio in experiment [5], in [6], in [8], in [11] and in experiment [13] was 1 in each case.
With `COc1ccc(/N=c2\ssnc2Cl)cc1`, the MFC99 in experiment [1] amounted to 16 µg/mL (≈ 61.8 µM); in experiment [2] it was 8 µg/mL (≈ 30.9 µM); in experiment [4], 16 µg/mL (≈ 61.8 µM); in experiment [9] it was 16 µg/mL (≈ 61.8 µM); in [14], 16 µg/mL (≈ 61.8 µM). Further, the MIC is 16 µg/mL (≈ 61.8 µM) in experiment [3]; 16 µg/mL (≈ 61.8 µM) in experiment [7]; 16 µg/mL (≈ 61.8 µM) in [10]; 16 µg/mL (≈ 61.8 µM) in experiment [12]; 8 µg/mL (≈ 30.9 µM) in experiment [15]. Besides, the Ratio in experiment [5], in experiment [6], in experiment [8], in experiment [11] and in [13] was 1 each time.
With `COc1ccc(/N=c2\ssnc2Cl)cc1OC`, the MFC99 in experiment [1] turned out to be 32 µg/mL (≈ 111 µM); in experiment [2], 32 µg/mL (≈ 111 µM); in [4], 32 µg/mL (≈ 111 µM); in experiment [9], 16 µg/mL (≈ 55.4 µM); in experiment [14], 16 µg/mL (≈ 55.4 µM). The MIC in experiment [3], in experiment [7], in experiment [10], in experiment [12] and in [15] was 16 µg/mL (≈ 55.4 µM) in each case. In addition, the Ratio in experiment [5] is given as 2; in experiment [6], 2; in experiment [8], 2; in experiment [11], 1; in [13], 1.
As for `N#Cc1ccccc1/N=c1\ssnc1Cl`, the MFC99 in experiment [1], in experiment [2], in experiment [4], in experiment [9] and in experiment [14] was 16 µg/mL (≈ 63.1 µM) in each case. The minimum inhibitory concentration (MIC) in experiment [3], in experiment [7], in experiment [10], in experiment [12] and in [15] was 16 µg/mL (≈ 63.1 µM) in each case. In addition, the Ratio in experiment [5], in experiment [6], in experiment [8], in experiment [11] and in experiment [13] was 1 throughout.
For the compound `Nc1nc(=O)[nH]cc1F` [FLUCYTOSINE], the MFC99 in experiment [1] was 0.25 µg/mL (≈ 1.94 µM); in experiment [2], more than 128 µg/mL; in [4] it was 64 µg/mL (≈ 496 µM); in experiment [9], 0.25 µg/mL (≈ 1.94 µM); in experiment [14], 4 µg/mL (≈ 31 µM). Besides, the MIC in experiment [3] is 0.13 µg/mL (≈ 1.01 µM); in experiment [7] it was 16 µg/mL (≈ 124 µM); in experiment [10], 0.1 µg/mL (≈ 0.775 µM); in experiment [12] it was 0.05 µg/mL (≈ 0.387 µM); in experiment [15] it was 2 µg/mL (≈ 15.5 µM). Further, the Ratio in [5] is recorded as more than 64; in [6] it was 4; in experiment [8], 5; in experiment [13], 5.
For the compound `C[C@@H]1[C@H](O)[C@@H](C)/C=C/C=C/C=C/C=C/C=C/C=C/C=C/[C@H](O[C@@H]2O[C@H](C)[C@@H](O)[C@H](N)[C@@H]2O)C[C@@H]2O[C@](O)(C[C@@H](O)C[C@@H](O)[C@H](O)CC[C@@H](O)C[C@@H](O)CC(=O)O[C@H]1C)C[C@H](O)[C@H]2C(=O)O` [AMPHOTERICIN B], the MFC99 in [1] is 2 µg/mL (≈ 2.16 µM); in [2], 0.5 µg/mL (≈ 0.541 µM); in experiment [4], 1 µg/mL (≈ 1.08 µM); in [9] it was 2 µg/mL (≈ 2.16 µM); in experiment [14], 0.5 µg/mL (≈ 0.541 µM). In addition, the MIC amounted to 0.25 µg/mL (≈ 0.271 µM) in experiment [3]; 0.5 µg/mL (≈ 0.541 µM) in [7]; 1 µg/mL (≈ 1.08 µM) in [10]; 1 µg/mL (≈ 1.08 µM) in experiment [12]; 0.13 µg/mL (≈ 0.141 µM) in experiment [15]. In addition, the Ratio in [5] turned out to be 3.8; in [6], 2; in experiment [8] it was 2; in [11] it was 2; in [13] it was 2.
